Patent US20140012013A1, “METHOD FOR PRODUCING PYRAZOLE CARBOXYLIC ACID DERIVATIVE” (SHIONOGI & CO., LTD., priority 2011, published 2014)

Experiment: log k′ (degree of lipophilic character) from HPLC retention time under gradient condition
Format: physicochemical
Details: XTerra MS C18 5 μm, 2.1×100 mm column; acetonitrile/pH6.8 buffer 5:95~95:5/20 min; flow 0.25 mL/min
Protocol: log k′ is a value which means degree of the lipophilic character, and is calculated by the following formula.
tR: retention time of compound under gradient condition t0: retention time of standard material not retained in column
XTerra MS C18 5 μm, 2.1×100 mm column (made by Waters) was used for measurement. The elution was a straight line inclination of acetonitrile/pH6.8 buffer (5:95˜95:5/20 min) at flow velocity 0.25 mL/min.

| SMILES | log k′ |
| --- | --- |
| COC(=O)NC12CC3CC(C1)C(NC(=O)c1cnn(/C=C/C(C)(C)NC(C)=O)c1OCC(C)C)C(C3)C2 (centres unmarked) [Compound (XIII-1-2)] | 0.886 |
| CC(=O)NCC12CC3CC(C1)C(NC(=O)c1cnn(/C=C/C(C)(C)NC(C)=O)c1OCC(C)C)C(C3)C2 (centres unmarked) [Compound (XIII-1-3)] | 0.838 |
